These are literature values, as cited in patent US20160220569A1, “CDK4/6 Inhibitor Dosage Formulations For The Protection Of Hematopoietic Stem And Progenitor Cells During Chemotherapy” (G1 Therapeutics, Inc., priority 2015, published 2016).

Where two headings read alike, the source gives them in different places.

For data set [1] the following is noted: cited from earlier work.
The conditions of data set [2]: cited from earlier work. The source holds these as a separate data set.
Where [3] appears, read: Grade 3/4 neutropenia and leukopenia with palbociclib.

On to `CCN1CCN(Cc2ccc(Nc3ncc(F)c(-c4cc(F)c5nc(C)n(C(C)C)c5c4)n3)nc2)CC1` [Abemaciclib], for which the “diarrhea in clinical trials” value in data set [1] (abemaciclib, gastrointestinal toxicity) is given as “greater than 50%”.
`CC(=O)c1c(C)c2cnc(Nc3ccc(N4CCNCC4)cn3)nc2n(C2CCCC2)c1=O` [palbociclib, 6-acetyl-8-cyclopentyl-5-methyl-2-(5-piperazin-1-yl-pyridin-2-ylammino)-8H-pyrido-[2,3-d]-pyrimidin-7-one]: the “AUC (0-10)” value was 333 ng·h/mL in data set [2] (100 mg QD, Day 1); 433 ng·h/mL in data set [2] (100 mg QD, Day 8); 622 ng·h/mL in data set [2] (150 mg QD, Day 1); 1599 ng·h/mL in data set [2] (150 mg QD, Day 8); 525 ng·h/mL in data set [2] (200 mg QD, Day 1); 1395 ng·h/mL in data set [2] (200 mg QD, Day 8). The “AUC (0-10)” value in data set [2] (225 mg QD, Day 1) is 718 ng·h/mL; in data set [2] (225 mg QD, Day 8), 1491 ng·h/mL. Also, the Cmax (commonly the maximum level reached in the sampled fluid or tissue) in data set [2] (100 mg QD, Day 1) is 44 ng/mL; in data set [2] (100 mg QD, Day 8) it was 58 ng/mL; in data set [2] (150 mg QD, Day 1), 78 ng/mL; in data set [2] (150 mg QD, Day 8), 194 ng/mL; in data set [2] (150 mg oral) it was 78 ng/mL; in data set [2] (200 mg QD, Day 1), 81 ng/mL. Moreover, the Cmax in data set [2] (200 mg QD, Day 8) is 174 ng/mL; in data set [2] (225 mg QD, Day 1), 104 ng/mL; in data set [2] (225 mg QD, Day 8), 186 ng/mL. The Tmax (commonly the time from dosing to the highest level) in data set [2] (100 mg QD, Day 1) is 4 h; in data set [2] (100 mg QD, Day 8), 4 h; in data set [2] (150 mg QD, Day 1), 6 h; in data set [2] (150 mg QD, Day 8), 7 h; in data set [2] (200 mg QD, Day 1), 5.7 h; in data set [2] (200 mg QD, Day 8) it was 4 h. Moreover, the Tmax in data set [2] (225 mg QD, Day 1) is recorded as 4 h; in data set [2] (225 mg QD, Day 8), 4.5 h. The “AUC(0-inf)” value in data set [2] (150 mg oral) is listed as 2002 n*hr/ml. Further, in data set [2] (150 mg oral), the CL/F (usually the apparent clearance, not corrected for the fraction that reaches the circulation) is 88.5 L/h. Further, the T1/2 in data set [2] (150 mg oral) was 26.7 h; in data set [2] (palbociclib, literature) it was “roughly 26.7 hours”. For the same compound, the “patients requiring a dose interruption” value in data set [1] (setting [3]) is 71%. The “patients requiring a dose reduction” value in data set [1] (setting [3]) is 35%.
On to `CN(C)C(=O)c1cc2cnc(Nc3ccc(N4CCNCC4)cn3)nc2n1C1CCCC1` [ribociclib], for which the associated adverse effect entry in data set [1] (ribociclib administration) is listed as “QT prolongation”.
